# Data as given in ChEMBL document CHEMBL1201862, “PubChem BioAssay data set” (2004).
#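 Test compounds were applied to cells in 96-well plates for 48 hours at 5 doses. Here, GI50 denotes the concentration required for 50% inhibition of growth.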 Active and inactive are the calls of the source. Cut-off read from the data, not from the text of the source: active = GI50 up to about 1.1 µM and inactive = higher.
# How the values were obtained:
# Assay in all cases: NCI anticancer screen, dose series, 48 h
# [1] = test system: SNB-78
# [2] = test system: DMS-273
# [3] = test system: HCC 2998
# [4] = test system: SNB-19
# [5] = test system: DMS-114
# [6] = test system: K562
# [7] = test system: MDA-N
# [8] = test system: OVCAR-5
# [9] = test system: A498
# [10] = test system: SK-MEL-28
# [11] = test system: U-251
# [12] = test system: NCI-H460
# [13] = test system: DU-145
# [14] = test system: KM-20L2
# [15] = test system: HOP-18
# [16] = test system: HT-29
# [17] = test system: SK-OV-3
# [18] = test system: NCI/ADR-RES
# [19] = test system: ACHN
# [20] = test system: NCI-H522
# [21] = test system: KM12
# [22] = test system: SF-268
# [23] = test system: EKVX
# [24] = test system: MDA-MB-435
# [25] = test system: SR
# [26] = test system: HOP-62
# [27] = test system: COLO 205
# [28] = test system: NCI-H23
# [29] = test system: A549
# [30] = test system: NCI-H226
# [31] = test system: OVCAR-8
# [32] = test system: CAKI-1
# [33] = test system: M19-MEL
# [34] = test system: Hs-578T
# [35] = test system: OVCAR-3
# [36] = test system: RPMI-8226
# [37] = test system: SK-MEL-5
# [38] = test system: UO-31
# [39] = test system: CCRF-CEM
# [40] = test system: LXFL 529
# [41] = test system: TK-10
# [42] = test system: SK-MEL-2
# [43] = test system: 786-0
# [44] = test system: HOP-92
# [45] = test system: SF-539
# [46] = test system: M14
# [47] = test system: HCT-15
# [48] = test system: SNB-75
# [49] = test system: SF-295
# [50] = test system: HL-60
# [51] = test system: IGROV-1
# [52] = test system: UACC-257
# [53] = test system: RXF 393
# [54] = test system: SW-620
# [55] = test system: OVCAR-4
# [56] = test system: PC-3
# [57] = test system: SN12C
# [58] = test system: DLD-1
# [59] = test system: MOLT-4
# [60] = test system: HCT-116
# [61] = test system: XF498
# [62] = test system: MCF7
# [63] = test system: UACC-62
# [64] = test system: BT-549
# [65] = test system: Malme-3M
# [66] = test system: LOX IMVI
# [67] = test system: T47D
# [68] = test system: MDA-MB-231
# [69] = test system: RXF 631
structure (smiles),measurement,setting,value
Cn1c2ccccc2c2ccc3c(c21)C(=O)C=CC3=O,GI50,[1],21.1 µM (inactive)
same,GI50,[2],12.9 µM (inactive)
same,GI50,[3],10.3 µM (inactive)
same,GI50,[4],26.5 µM (inactive)
same,GI50,[5],8.26 µM (inactive)
same,GI50,[6],1.75 µM (inactive)
same,GI50,[7],6.82 µM (inactive)
same,GI50,[8],14.1 µM (inactive)
same,GI50,[9],> 45.2 µM (inactive)
same,GI50,[10],11.1 µM (inactive)
same,GI50,[11],11.4 µM (inactive)
same,GI50,[12],16.9 µM (inactive)
same,GI50,[13],16 µM (inactive)
same,GI50,[14],17.1 µM (inactive)
same,GI50,[15],2 µM (inactive)
same,GI50,[16],10.5 µM (inactive)
same,GI50,[17],17.1 µM (inactive)
same,GI50,[18],5.16 µM (inactive)
same,GI50,[19],3.52 µM (inactive)
same,GI50,[20],2.96 µM (inactive)
same,GI50,[21],22.9 µM (inactive)
same,GI50,[22],14.8 µM (inactive)
same,GI50,[23],19.4 µM (inactive)
same,GI50,[24],5.11 µM (inactive)
same,GI50,[25],0.796 µM (active)
same,GI50,[26],28 µM (inactive)
same,GI50,[27],2.43 µM (inactive)
same,GI50,[28],12.7 µM (inactive)
same,GI50,[29],26.2 µM (inactive)
same,GI50,[30],20.5 µM (inactive)
same,GI50,[31],7.03 µM (inactive)
same,GI50,[32],4.33 µM (inactive)
same,GI50,[33],10.5 µM (inactive)
same,GI50,[34],18.4 µM (inactive)
same,GI50,[35],7.24 µM (inactive)
same,GI50,[36],2.32 µM (inactive)
same,GI50,[37],15.2 µM (inactive)
same,GI50,[38],6.93 µM (inactive)
same,GI50,[39],0.69 µM (active)
same,GI50,[40],2.95 µM (inactive)
same,GI50,[41],3.88 µM (inactive)
same,GI50,[42],15.6 µM (inactive)
same,GI50,[43],4.27 µM (inactive)
same,GI50,[44],2.52 µM (inactive)
same,GI50,[45],11.5 µM (inactive)
same,GI50,[46],8.65 µM (inactive)
same,GI50,[47],4.56 µM
same,GI50,[48],16.7 µM (inactive)
same,GI50,[49],24.7 µM (inactive)
same,GI50,[50],0.738 µM (active)
same,GI50,[51],15.4 µM (inactive)
same,GI50,[52],9.48 µM (inactive)
same,GI50,[53],2.47 µM (inactive)
same,GI50,[54],2.02 µM (inactive)
same,GI50,[55],1.82 µM (inactive)
same,GI50,[56],5.6 µM (inactive)
same,GI50,[57],9.93 µM (inactive)
same,GI50,[58],2.3 µM (inactive)
same,GI50,[59],0.755 µM (active)
same,GI50,[60],4.29 µM (inactive)
same,GI50,[61],2.15 µM (inactive)
same,GI50,[62],3.3 µM (inactive)
same,GI50,[63],12.1 µM (inactive)
same,GI50,[64],6.98 µM (inactive)
same,GI50,[65],3.39 µM (inactive)
same,GI50,[66],4.18 µM (inactive)
same,GI50,[67],3.27 µM (inactive)
same,GI50,[68],6.73 µM (inactive)
c1ccc(CN2COc3c(ccc4c5c(ccc34)CN(Cc3ccccc3)CO5)C2)cc1,GI50,[1],> 100 µM (inactive)
same,GI50,[3],> 100 µM (inactive)
same,GI50,[4],> 100 µM (inactive)
same,GI50,[5],> 100 µM (inactive)
same,GI50,[6],> 100 µM (inactive)
same,GI50,[7],> 100 µM (inactive)
same,GI50,[8],> 100 µM (inactive)
same,GI50,[9],> 100 µM (inactive)
same,GI50,[10],> 100 µM (inactive)
same,GI50,[11],> 100 µM (inactive)
same,GI50,[12],> 100 µM (inactive)
same,GI50,[13],> 100 µM (inactive)
same,GI50,[14],26.2 µM (inactive)
same,GI50,[15],52 µM (inactive)
same,GI50,[16],> 100 µM (inactive)
same,GI50,[17],> 100 µM (inactive)
same,GI50,[18],> 100 µM (inactive)
same,GI50,[19],> 100 µM (inactive)
same,GI50,[20],> 100 µM (inactive)
same,GI50,[21],> 100 µM (inactive)
same,GI50,[22],> 100 µM (inactive)
same,GI50,[23],> 100 µM (inactive)
same,GI50,[24],> 100 µM (inactive)
same,GI50,[25],> 100 µM (inactive)
same,GI50,[26],> 100 µM (inactive)
same,GI50,[27],> 100 µM (inactive)
same,GI50,[28],> 100 µM (inactive)
same,GI50,[29],> 100 µM (inactive)
same,GI50,[30],> 76.6 µM (inactive)
same,GI50,[31],> 100 µM (inactive)
same,GI50,[32],> 100 µM (inactive)
same,GI50,[33],> 100 µM (inactive)
same,GI50,[34],> 100 µM (inactive)
same,GI50,[35],> 100 µM (inactive)
same,GI50,[36],> 100 µM (inactive)
same,GI50,[37],> 100 µM (inactive)
same,GI50,[38],> 100 µM (inactive)
same,GI50,[39],> 100 µM (inactive)
same,GI50,[40],> 100 µM (inactive)
same,GI50,[41],> 100 µM (inactive)
same,GI50,[42],> 100 µM (inactive)
same,GI50,[43],> 100 µM (inactive)
same,GI50,[44],> 100 µM (inactive)
same,GI50,[45],> 100 µM (inactive)
same,GI50,[46],> 100 µM (inactive)
same,GI50,[47],> 100 µM
same,GI50,[48],> 100 µM (inactive)
same,GI50,[49],> 100 µM (inactive)
same,GI50,[50],> 100 µM (inactive)
same,GI50,[51],> 100 µM (inactive)
same,GI50,[52],> 100 µM (inactive)
same,GI50,[53],> 100 µM (inactive)
same,GI50,[54],> 100 µM (inactive)
same,GI50,[55],> 100 µM (inactive)
same,GI50,[56],> 100 µM (inactive)
same,GI50,[57],> 100 µM (inactive)
same,GI50,[58],> 100 µM (inactive)
same,GI50,[59],> 100 µM (inactive)
same,GI50,[60],> 100 µM (inactive)
same,GI50,[62],> 100 µM (inactive)
same,GI50,[63],> 100 µM (inactive)
same,GI50,[69],> 100 µM (inactive)
same,GI50,[64],> 100 µM (inactive)
same,GI50,[65],> 100 µM (inactive)
same,GI50,[66],> 100 µM (inactive)
same,GI50,[67],> 100 µM (inactive)
same,GI50,[68],> 100 µM (inactive)
CCCN(CCC)C1CC(n2cc(C)c(=O)[nH]c2=O)OC1CO (stereo not drawn),GI50,[1],> 100 µM (inactive)
same,GI50,[2],> 100 µM (inactive)
same,GI50,[3],> 100 µM (inactive)
same,GI50,[5],> 100 µM (inactive)
same,GI50,[6],> 100 µM (inactive)
same,GI50,[10],> 100 µM (inactive)
same,GI50,[12],> 100 µM (inactive)
same,GI50,[17],> 100 µM (inactive)
same,GI50,[19],> 100 µM (inactive)
same,GI50,[20],> 100 µM (inactive)
same,GI50,[22],> 100 µM (inactive)
same,GI50,[25],> 100 µM (inactive)
same,GI50,[26],> 100 µM (inactive)
same,GI50,[27],> 100 µM (inactive)
same,GI50,[28],> 100 µM (inactive)
same,GI50,[30],> 100 µM (inactive)
same,GI50,[32],> 100 µM (inactive)
same,GI50,[33],> 100 µM (inactive)
same,GI50,[36],> 100 µM (inactive)
same,GI50,[38],> 100 µM (inactive)
same,GI50,[39],> 100 µM (inactive)
same,GI50,[40],> 100 µM (inactive)
same,GI50,[42],> 100 µM (inactive)
same,GI50,[43],> 100 µM (inactive)
same,GI50,[44],> 100 µM (inactive)
same,GI50,[45],> 100 µM (inactive)
same,GI50,[46],> 100 µM (inactive)
same,GI50,[48],> 100 µM (inactive)
same,GI50,[50],> 100 µM (inactive)
same,GI50,[51],> 100 µM (inactive)
same,GI50,[55],> 100 µM (inactive)
same,GI50,[57],> 100 µM (inactive)
same,GI50,[58],> 100 µM (inactive)
same,GI50,[59],> 100 µM (inactive)
same,GI50,[60],> 100 µM (inactive)
same,GI50,[63],> 100 µM (inactive)
same,GI50,[69],> 100 µM (inactive)
same,GI50,[65],> 100 µM (inactive)
